pIC50: −log10 of the molar value.
Legend:
ATR = ATR (Homo sapiens (Human), UniProt Q13535); experiment: Enzyme ATR in vitro enzyme assay (ELISA, phospho-Ser15 p53 substrate); format: biochemical; conditions: ATR immunoprecipitated from HeLa nuclear extract; GST-p53N66 substrate; ATP 3 μM; 37° C.
Experimental: ATR for use in the in vitro enzyme assay was obtained from HeLa nuclear extract (CIL Biotech, Mons, Belgium) by immunoprecipitation with rabbit polyclonal antiserum raised to amino acids 400-480 of ATR (Tibbetts R S et al, 1999, Genes Dev. 13:152-157) contained in the following buffer (25 mM HEPES (pH7.4), 2 mM MgCl2, 250 mM NaCl, 0.5 mM EDTA, 0.1 mM Na3V04, 10% v/v glycerol, and 0.01% v/v Tween 20). ATR-antibody complexes were isolated from nuclear extract by incubating with protein A-Sepharose beads (Sigma, #P3476) for 1 hour and then through centrifugation to recover the beads. In the well of a 96-well plate, […] Sepharose beads were incubated with 1 μg of substrate glutathione S-transferase-p53N66 (NH2-terminal 66 amino acids of p53 fused to glutathione ^-transferase was expressed in E. coli) in ATR assay buffer (50 mM HEPES (pH 7.4), 150 mM NaCl, 6 mM MgCl2, 4 mM MnCl2, 0.1 mM Na3V04, 0.1 mM DTT, and 10% (v/v) glycerol) at 37° C. in the presence or absence of inhibitor. After 10 minutes with gentle shaking, ATP was added to a final concentration of 3 μM and the reaction continued at 37° C. for an additional 1 hour. The reaction was stopped by addition of IOOμí PBS and the reaction was transferred to a white opaque glutathione coated 96-well plate (NUNC #436033) and incubated overnight at 4° C. This plate was then washed with PBS/0.05%>(v/v) Tween 20, blotted dry, and analyzed by a standard ELISA (Enzyme-Linked Immunosorbent Assay) technique with a phospho-serine 15 p53 (16G78) antibody (Cell Signaling Technology, #9286). The detection of phosphorylated glutathione S-transferase-pSSNee substrate was performed in combination with a goat anti-mouse horseradish peroxidase-conjugated secondary antibody (Pierce, #31430). Enhanced chemiluminescence solution (NEN, Boston, Mass.) was used to produce a signal and chemiluminescent detection was carried out via a TopCount (Packard, Meriden, Conn.) plate reader.

[1] = system: ATM-Deficient Colorectal Cancer LoVo Cell Lines; experiment: In vitro anti-proliferation assay (ATPlite luminescence); format: cell-based; conditions: Homo sapiens; LoVo cells; about 72 hours; 5% FBS
Experimental: Cell antiproliferation was assayed by PerkinElmer ATPlite™ Luminescence Assay System. Briefly, the various test cancer cell lines were plated at a density of about 1×10^4 cells per well in Costar 96-well plates, and were incubated with different concentrations of compounds for about 72 hours in medium supplemented with 5% FBS. One lyophilized substrate solution vial was then reconstituted by adding 5 mL of substrate buffer solution, and was agitated gently until the solution was homogeneous. About 50 μL of mammalian cell lysis solution was added to 100 μL of cell suspension per well of a microplate, and the plate was shaken for about five minutes in an orbital shaker at ˜700 rpm. This procedure was used to lyse the cells and to stabilize the ATP. Next, 50 μL substrate solution was added to the wells and microplate was shaken for five minutes in an orbital shaker at ˜700 rpm. Finally, the luminescence was measured by a PerkinElmer TopCount® Microplate Scintillation Counter. Such assays, carried out with a range of doses of test compounds, allowed the determination of the cellular anti-antiproliferative IC50 of the compounds of the present invention. The following table lists the IC50 values of several cancer cell lines (5% FBS) for certain compounds of the invention.

Mice PK study = format: in vivo; conditions: CD-1 mouse; oral dosing po, 10 mg/kg; plasma
Experimental: The pharmacokinetics of compounds were evaluated in CD-1 mouse via Intravenous and Oral Administration. The IV dose was administered as a slow bolus in the Jugular vein, and oral doses were administered by gavage. The formulation for IV dosing was 5% DMSO in 20% HPBCD in water, and the PO formulation was 2.5% DMSO, 10% EtOH, 20% Cremphor EL, 67.5% D5W. The PK time point for the IV arm was 5, 15, 30 min, 1, 2, 4, 6, 8, 12, 24 hours post dose, and for PO arm was 15, 30 min, 1, 2, 4, 6, 8, 12, 24 hours post dose. Approximately 0.03 mL blood was collected at each time point. Blood of each sample was transferred into plastic micro centrifuge tubes containing EDTA-K2 and collect plasma within 15 min by centrifugation at 4000 g for 5 minutes in a 4° C. centrifuge. Plasma samples were stored in polypropylene tubes. The samples were stored in a freezer at −75±15° C. prior to analysis. Concentrations of compounds in the plasma samples were analyzed using a LC-MS/MS method. WinNonlin (Phoenix™, version 6.1) or other similar software was used for pharmacokinetic calculations. The following pharmacokinetic parameters were calculated, whenever possible from the plasma concentration versus time data: IV administration: C0, CL, Vd, T1/2, AUCinf, AUClast, MRT, Number of Points for Regression; PO administration: Cmax, Tmax, T1/2, AUCinf, AUClast, F %, Number of Points for Regression. […]

Sequence of ATR (Q13535 whole entry, the tested form may be a part): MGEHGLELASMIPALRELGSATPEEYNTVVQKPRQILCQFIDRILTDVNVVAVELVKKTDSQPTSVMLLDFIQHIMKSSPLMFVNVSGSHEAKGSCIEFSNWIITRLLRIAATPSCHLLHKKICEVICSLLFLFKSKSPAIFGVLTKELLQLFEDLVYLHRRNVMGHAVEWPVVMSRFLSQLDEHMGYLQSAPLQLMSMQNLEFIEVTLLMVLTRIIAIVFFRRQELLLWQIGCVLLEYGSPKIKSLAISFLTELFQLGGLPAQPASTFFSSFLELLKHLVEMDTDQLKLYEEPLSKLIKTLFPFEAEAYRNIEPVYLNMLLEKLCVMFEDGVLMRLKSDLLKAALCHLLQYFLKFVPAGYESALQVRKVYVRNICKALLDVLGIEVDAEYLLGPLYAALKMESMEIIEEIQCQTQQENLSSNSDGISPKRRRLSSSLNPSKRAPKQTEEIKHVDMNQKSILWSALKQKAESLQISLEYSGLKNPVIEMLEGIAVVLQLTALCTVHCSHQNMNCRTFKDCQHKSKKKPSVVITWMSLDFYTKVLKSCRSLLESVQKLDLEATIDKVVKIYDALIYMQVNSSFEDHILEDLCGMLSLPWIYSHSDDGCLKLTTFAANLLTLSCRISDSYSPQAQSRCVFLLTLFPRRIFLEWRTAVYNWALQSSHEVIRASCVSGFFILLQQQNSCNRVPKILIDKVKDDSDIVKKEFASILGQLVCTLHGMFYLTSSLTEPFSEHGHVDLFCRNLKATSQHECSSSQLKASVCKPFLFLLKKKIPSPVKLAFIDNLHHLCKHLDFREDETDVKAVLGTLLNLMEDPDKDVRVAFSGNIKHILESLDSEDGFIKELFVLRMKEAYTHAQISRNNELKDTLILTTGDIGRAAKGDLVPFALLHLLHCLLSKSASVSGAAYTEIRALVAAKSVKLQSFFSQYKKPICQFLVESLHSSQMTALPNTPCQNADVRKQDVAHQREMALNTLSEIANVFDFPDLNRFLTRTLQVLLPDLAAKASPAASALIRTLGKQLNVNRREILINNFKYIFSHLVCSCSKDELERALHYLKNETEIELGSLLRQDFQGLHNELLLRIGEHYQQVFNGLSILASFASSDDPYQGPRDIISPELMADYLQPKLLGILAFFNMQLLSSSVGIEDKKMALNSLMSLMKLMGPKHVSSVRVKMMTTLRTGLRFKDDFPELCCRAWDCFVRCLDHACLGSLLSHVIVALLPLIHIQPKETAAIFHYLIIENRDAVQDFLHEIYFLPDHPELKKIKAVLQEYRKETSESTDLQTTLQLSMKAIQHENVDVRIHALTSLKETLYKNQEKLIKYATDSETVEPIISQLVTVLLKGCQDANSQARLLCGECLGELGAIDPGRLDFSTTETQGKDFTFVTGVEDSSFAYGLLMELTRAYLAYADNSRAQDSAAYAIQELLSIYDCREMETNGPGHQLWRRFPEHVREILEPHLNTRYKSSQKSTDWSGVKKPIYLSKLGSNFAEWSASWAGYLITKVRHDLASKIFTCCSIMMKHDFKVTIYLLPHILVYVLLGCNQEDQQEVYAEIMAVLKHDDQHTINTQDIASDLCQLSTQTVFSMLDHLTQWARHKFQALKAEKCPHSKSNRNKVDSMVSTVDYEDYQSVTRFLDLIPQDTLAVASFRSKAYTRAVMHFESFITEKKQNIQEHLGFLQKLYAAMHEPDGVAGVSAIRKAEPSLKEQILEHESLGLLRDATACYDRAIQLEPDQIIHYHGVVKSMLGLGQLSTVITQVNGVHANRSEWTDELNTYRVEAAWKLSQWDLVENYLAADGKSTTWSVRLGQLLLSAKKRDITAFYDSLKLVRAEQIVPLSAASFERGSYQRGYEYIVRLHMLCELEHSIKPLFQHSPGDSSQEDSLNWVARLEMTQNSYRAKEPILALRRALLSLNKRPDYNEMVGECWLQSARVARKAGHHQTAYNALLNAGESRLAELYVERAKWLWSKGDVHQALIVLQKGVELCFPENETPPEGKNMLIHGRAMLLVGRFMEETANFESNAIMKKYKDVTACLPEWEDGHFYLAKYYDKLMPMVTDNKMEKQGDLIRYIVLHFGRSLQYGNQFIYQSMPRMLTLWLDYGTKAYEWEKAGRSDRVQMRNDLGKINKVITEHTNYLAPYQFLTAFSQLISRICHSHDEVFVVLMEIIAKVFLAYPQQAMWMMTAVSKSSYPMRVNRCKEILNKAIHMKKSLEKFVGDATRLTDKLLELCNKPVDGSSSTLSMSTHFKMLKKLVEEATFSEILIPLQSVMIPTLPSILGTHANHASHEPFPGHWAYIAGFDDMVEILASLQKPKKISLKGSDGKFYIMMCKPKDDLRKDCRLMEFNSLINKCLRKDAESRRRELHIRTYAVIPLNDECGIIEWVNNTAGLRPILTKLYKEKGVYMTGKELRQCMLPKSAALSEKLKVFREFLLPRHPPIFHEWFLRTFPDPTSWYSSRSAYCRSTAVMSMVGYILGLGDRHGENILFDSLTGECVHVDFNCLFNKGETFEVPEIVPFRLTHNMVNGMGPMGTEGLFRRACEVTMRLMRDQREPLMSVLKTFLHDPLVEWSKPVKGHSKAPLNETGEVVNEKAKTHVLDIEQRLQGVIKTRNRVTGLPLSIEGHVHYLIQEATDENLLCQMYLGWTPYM
Sequence of ATR (Q8WXE1 whole entry partner, the tested form may be a part): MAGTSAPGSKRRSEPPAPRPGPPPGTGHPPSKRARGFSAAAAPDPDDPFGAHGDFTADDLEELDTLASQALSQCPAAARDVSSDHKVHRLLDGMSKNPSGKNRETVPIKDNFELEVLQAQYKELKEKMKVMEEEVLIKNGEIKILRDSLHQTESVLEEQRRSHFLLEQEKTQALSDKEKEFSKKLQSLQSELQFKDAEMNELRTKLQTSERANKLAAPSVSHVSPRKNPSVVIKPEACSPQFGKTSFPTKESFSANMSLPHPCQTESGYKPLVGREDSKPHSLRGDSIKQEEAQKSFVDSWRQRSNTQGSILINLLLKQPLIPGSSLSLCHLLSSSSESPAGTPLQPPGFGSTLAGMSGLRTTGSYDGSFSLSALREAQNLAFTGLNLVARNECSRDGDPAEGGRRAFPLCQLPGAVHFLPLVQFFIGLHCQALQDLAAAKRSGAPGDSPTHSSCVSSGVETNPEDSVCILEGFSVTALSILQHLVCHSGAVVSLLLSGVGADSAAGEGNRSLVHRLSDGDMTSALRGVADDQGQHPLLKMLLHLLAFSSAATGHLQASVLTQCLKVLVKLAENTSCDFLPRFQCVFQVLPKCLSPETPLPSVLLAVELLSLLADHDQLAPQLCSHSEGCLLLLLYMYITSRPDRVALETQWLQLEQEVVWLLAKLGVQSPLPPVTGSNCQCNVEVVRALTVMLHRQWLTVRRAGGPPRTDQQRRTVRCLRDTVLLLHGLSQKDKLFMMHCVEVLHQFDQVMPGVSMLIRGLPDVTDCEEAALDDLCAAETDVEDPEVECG

| SMILES | pIC50 (ATR) | pIC50 [1] | AUC(0-t) (Mice PK study) |
| --- | --- | --- | --- |
| CN=S(C)(=O)C1(c2cc(N3CCOC[C@H]3C)nc(-c3ccnc4[nH]ccc34)n2)CC1 (stereo partly drawn) [CY-200-1, Methyl[methyl(1-[6-[(3R)-3-methylmorpholin-4-yl]-2-[1H-pyrrolo[2,3-b]pyridin-4-yl]pyrimidin-4-yl]cyclopropyl)oxo-lambda-sulfanylidene]amine] | > 8.52 | – | – |
| C[C@@H]1COCCN1c1cc(C(C)(C)C#N)nc(-c2ccnc3[nH]ccc23)n1 [CY-237, 2-methyl-2-[6-[(3R)-3-methylmorpholin-4-yl]-2-[1H-pyrrolo[2,3-b]pyridin-4-yl]pyrimidin-4-yl]propanenitrile] | > 8.52 | 6.32 | 4390 ng·h/mL |
| C[C@@H]1COCCN1c1cc(C(C)(O)C(F)(F)F)nc(-c2ccnc3[nH]ccc23)n1 (stereo partly drawn) [CY-257, 1,1,1-trifluoro-2-[6-[(3R)-3-methylmorpholin-4-yl]-2-[1H-pyrrolo[2,3-b]pyridin-4-yl]pyrimidin-4-yl]propan-2-ol] | > 8.52 | 6.08 | – |
| C[C@@H]1COCCN1c1cc(NCC2CC(F)(F)C2)nc(-c2ccnc3[nH]ccc23)n1 [CY-249, N-[(3,3-difluorocyclobutyl)methyl]-6-[(3R)-3-methylmorpholin-4-yl]-2-[1H-pyrrolo[2,3-b]pyridin-4-yl]pyrimidin-4-amine] | > 8.52 | 6.29 | – |

The next lines start with the values.

| pIC50 (ATR) | pIC50 [1] | AUC(0-t) (Mice PK study) | SMILES |
| --- | --- | --- | --- |
| > 8.52 | – | – | [2H]C([2H])([2H])N=S(C)(=O)C1(c2cc(N3CCOC[C@H]3C)nc(-c3ccnc4[nH]ccc34)n2)CC1 (stereo partly drawn) [CY-209, (2H3)methyl[methyl(1-[6-[(3R)-3-methylmorpholin-4-yl]-2-[1H-pyrrolo[2,3-b]pyridin-4-yl]pyrimidin-4-yl]cyclopropyl)oxo-lambda6-sulfanylidene]amine] |
| – | 6.10 | 3100 ng·h/mL | C[C@@H]1COCCN1c1cc(C2([S@](C)(=N)=O)CC2)nc(-c2cc[nH]c3nccc2-3)n1 [AZD-6738, reference compound] |
| > 8.52 | – | – | C[C@@H]1COCCN1c1cc(C(C)(C)O)nc(-c2ccnc3[nH]ccc23)n1 [CY-212, 2-[6-[(3R)-3-methylmorpholin-4-yl]-2-[1H-pyrrolo[2,3-b]pyridin-4-yl]pyrimidin-4-yl]propan-2-ol] |

Source: patent US11236089B2, “Substituted pyrrolopyridines as ATR inhibitors” (BlueValley Pharmaceutical LLC, priority 2017, dated 2022)
